Reference: patent US20090054455A1, “ARIPIPRAZOLE CO-CRYSTALS” (DR. REDDY'S LABORATORIES LTD., priority 2006, published 2009)

Columns and labels:
[1] = Polymorphic stability on storage, checked by XRPD; format: physicochemical; conditions: stored 3 months in self-sealing polyethylene bag, normal atmospheric conditions, room temperature
Experimental: The process of the present invention provides stable co-crystals of aripiprazole with fumaric acid. The term “stable crystalline form” refers to stability of the crystalline form under the standard temperature and humidity conditions of testing of pharmaceutical products, wherein the stability is indicated by preservation of the original polymorphic form.
Aripiprazole was prepared according to the process given in Example 2 and was packaged in a self-sealing polyethylene bag. The material was stored for 3 months under normal atmospheric conditions at room temperature and checked for polymorphic stability.

[2] = cited from earlier work

Row | SMILES | polymorphic stability (maintenance of the original XRPD pattern) [1] | solubility in aqueous media [2]
1 | O=C(O)C=CC(=O)O.O=C1CCc2ccc(OCCCCN3CCN(c4cccc(Cl)c4Cl)CC3)cc2N1.O=C1CCc2ccc(OCCCCN3CCN(c4cccc(Cl)c4Cl)CC3)cc2N1 [Example 2] | retain its polymorphic form | 
2 | O=C1CCc2ccc(OCCCCN3CCN(c4cccc(Cl)c4Cl)CC3)cc2N1 [aripiprazole, 7-[4-[4-(2,3-dichlorophenyl)-1-piperazinyl]butoxy]-3,4-dihydrocarbostyril] |  | practically insoluble
